Results as given in patent publication US20150216903A1, “COMPOUNDS FOR IMPROVED VIRAL TRANSDUCTION” (BLUEBIRD BIO, INC., priority 2012, published 2015).

What was measured:
[1] = test system: CD34+ cells; test: FACS staining after transduction with ALD (ABCD1)-expressing lentivirus; type: cell-based, human; conditions: ABCD1 lentivirus MOI 25
Protocol: (§1) One vial of CD34+ cells (AllCells) were thawed by incubating at 37° C. for 1-2 minutes and contents were transferred to 10 mL Stem Cell Growth Media (hereafter referred to as SCGM) in a 15-mL conical tube. Cells were spun for 5 minutes at 1500 RPM in a standard tabletop centrifuge, resuspended in 10 mL SCGM and counted on a hemacytometer. A volume correlating with an appropriate number of cells was transferred to a fresh 15-mL conical tube, and again spun for 5 minutes at 1500 RPM. Cells were resuspended to the desired cell concentration in SCGM+1× cytokines (100 ng/mL SCF, 100 ng/mL TPO, 100 ng/mL FltL, and 30 ng/mL IL-3), and plated on a sterile non-adherent surface at 37° C. in a standard humidified tissue culture incubator (5% CO2).
(§2) Pre-stimulated cells (Example 1) were counted after 18-24 hours of culture. The cells were collected and spun for 5 minutes at 1500 RPM. 1.2×10^6 pre-stimulated CD34^+ cells were resuspended in 60 uL 10× cytokines (1000 ng/mL SCF, 1000 ng/mL TPO, 1000 ng/mL FltL, and 300 ng/mL IL-3), 7.8 uL protamine sulfate, 111 uL viral supernatant, and 361.2 uL SCGM. 90 uL cell/virus suspension (about 200,000 cells) was added to each well of a standard non-adherent 96-well plate. dmPGE2 was added during this viral transduction step at a final concentration of 100 uM, 50 uM, 25 uM, 12.5 uM, 1 uM, or 0 uM.
(§3) After 24 hours of culture with virus and dmPGE2, cells were washed prior to subsequent functional validation assays. Washing was performed by transferring cells to a 96-well U-bottom plate and spinning for 5 minutes at 1500 RPM in a standard tabletop centrifuge. Media was aspirated and cells were resuspended in 200 uL SCGM. Cells were spun again for 5 minutes at 1500 RPM and media was aspirated. Cells were again resuspended in 200 uL SCGM then spun for 5 minutes at 1500 RPM, and again the media was aspirated. Particular functional validation assays are described below.
(§4) Washed cells were resuspended in 200 uL SCGM+lx cytokines (as described in Example 1) and transferred to a standard 12-well non-adherent tissue culture plate containing an additional 800 uL SCGM+lx cytokines Cells were maintained for an additional 6 days in a standard humidified tissue culture incubator (5% CO2) and then subjected Vector Copy Number analysis (Example 5) and FACS analysis. For FACS analysis, cells were assayed for the presence of a virally-encoded transgene, green fluorescent protein (GFP). The frequency of the virally-labeled cells within the pool of cultured cells was quantified as the frequency of GFP+ cells within the population. The mean fluorescence intensity of labeled cells was quantified.
(§5) Tables 3A-C indicate the dose-response of dmPGE2 in promoting viral transduction of CD34+ cells for three separate experiments. CD34+ cells were thawed and pre-stimulated with SCF, TPO, FltL, and IL3, then transduced (A) with GFP+ lentivirus at a multiplicity of infection of 25, (B) with GFP+ lentivirus at a multiplicity of infection of 5, or (C) transduced with an ALD (ABCD1)-expressing lentivirus at a multiplicity of infection of 25. Cells were exposed to dmPGE2 during the viral transduction step (24-48 hours of culture). Cells were then washed and analyzed by flow cytometry and PCR after approximately 1 week in culture. The percentage of cells positive for GFP (A, B) or ALD (C) via FACS staining is indicated, along with the mean fluorescent intensity (MFI) and vector copy number (VCN) (A, B).

[2] = test system: HSCs; conditions: published data, Goessling et al., Cell Stem Cell 2011; cited from earlier work
[3] = test system: CD34+ cells; test: Vector Copy Number analysis (qRT-PCR, viral LTR vs human beta-actin) after GFP+ lentivirus transduction; type: cell-based
Protocol: as §2, §3, §4
Briefly, total genomic DNA was isolated from cells through standard protocols (for example, through DNEasy columns from Qiagen). Genomic DNA was subjected to quantitative real-time polymerase chain reaction (qRT-PCR) with TaqMan probes for viral LTR and human beta-actin. The Ct values for viral signal and beta-actin signal were normalized to a standardized control, and the number of viral copies per copy of beta actin were calculated. A linear relationship between the vector copy number and the mean fluorescence intensity (Example 4) was observed when a viral construct that encodes GFP was used.
as §5

[4] = test system: CD34+ cells; test: 7-Day liquid culture, FACS analysis after transduction with GFP+ lentivirus; type: cell-based, human
Protocol: as §1, §2
Cells were incubated at 37° C. in a standard humidified tissue culture incubator (5% CO2).
Aliquots of 10 mM dmPGE2 in DMSO were prepared from 1 mg previously processed dmPGE2 (Cayman Chemicals). Briefly, air was pipetted into the vial of dmPGE2 until methyl acetate was evaporated. 263 uL DMSO was added to the PGE2 remaining in the vial, and aliquots of 25 uL were added to 1.5 mL Eppendorf tubes and stored at −80° C. 10× working stock solutions were prepared by serial dilution of dmPGE2 in SCGM, and were then added to cells at appropriate working concentrations, according to Table 2. Cells were then incubated at 37° C. in a standard humidified tissue culture incubator (5% CO2).
as §3, §4
as §5, with “The percentage of cells positive for GFP (A, B) or ALD (C) via FACS staining is indicated, along with the mean fluorescent intensity (MFI) and vector copy number (VCN) (A, B).” left out

[5] = dmPGE2 12.5 uM during transduction, GFP lentivirus MOI 5
[6] = dmPGE2 12.5 uM during transduction, GFP lentivirus MOI 25
[7] = dmPGE2 25 uM during transduction, GFP lentivirus MOI 5
[8] = dmPGE2 25 uM during transduction, GFP lentivirus MOI 25
[9] = dmPGE2 50 uM during transduction, GFP lentivirus MOI 5
[10] = dmPGE2 50 uM during transduction, GFP lentivirus MOI 25
[11] = dmPGE2 100 uM during transduction, GFP lentivirus MOI 5
[12] = dmPGE2 100 uM during transduction, GFP lentivirus MOI 25

Q: Which “% Positive (ALD)” value ([1]; dmPGE2 1 uM during transduction (24-48 hours of culture)) does the source give for CCCCC(C)(C)[C@H](O)/C=C/[C@H]1[C@H](O)CC(=O)[C@@H]1C/C=C\CCCC(=O)O [dmPGE2, 16,16-dimethyl PGE2] here?
A: Its value is 34.13%.

Q: What about the “% Positive (ALD)” value ([1]; dmPGE2 12.5 uM during transduction (24-48 hours of culture)) of the same compound?
A: The value was 45.36%.

Q: And the “% Positive (ALD)” value ([1]; dmPGE2 25 uM during transduction (24-48 hours of culture))?
A: Its value is 43.76%.

Q: What about the “% Positive (ALD)” value ([1]; dmPGE2 50 uM during transduction (24-48 hours of culture)) of the same compound?
A: The value was 56.10%.

Q: And the “% Positive (ALD)” value ([1]; dmPGE2 100 uM during transduction (24-48 hours of culture))?
A: The value was 72.26%.

Q: And the “promotion of viral transduction of HSCs” value [2]?
A: Its value is “unable to promote viral transduction of HSCs”.

Q: What about the VCN [3, 5] of the same compound?
A: Its VCN is 0.18.

Q: What about the VCN [3, 6] of the same compound?
A: The VCN was 1.5.

Q: And the VCN [3, 7]?
A: Its VCN is 0.21.

Q: What about the VCN [3, 8] of the same compound?
A: Its VCN is 1.7.

Q: And the VCN [3, 9]?
A: Its VCN is 0.715.

Q: What about the VCN [3, 10] of the same compound?
A: The VCN was 2.2.

Q: And the VCN [3, 11]?
A: Its VCN is 0.83.

Q: What about the VCN [3, 12] of the same compound?
A: Its VCN is 3.55.

Q: What about the “% Positive (GFP)” value ([4]; dmPGE2 12.5 uM during transduction (24-48 hours of culture), GFP lentivirus MOI 5) of the same compound?
A: Its value is 17.84%.

Q: What about the “% Positive (GFP)” value ([4]; dmPGE2 12.5 uM during transduction (24-48 hours of culture), GFP lentivirus MOI 25) of the same compound?
A: The value was 54.71%.

Q: And the MFI [4, 5]?
A: Its MFI is 530,218.50.

Q: And the MFI [4, 6]?
A: The MFI was 759,442.75.

Q: And the “% Positive (GFP)” value ([4]; dmPGE2 25 uM during transduction (24-48 hours of culture), GFP lentivirus MOI 5)?
A: The value was 18.69%.

Q: And the “% Positive (GFP)” value ([4]; dmPGE2 25 uM during transduction (24-48 hours of culture), GFP lentivirus MOI 25)?
A: The value was 59.99%.

Q: And the MFI [4, 7]?
A: Its MFI is 562,428.00.

Q: What about the MFI [4, 8] of the same compound?
A: The MFI was 845,691.00.

Q: What about the “% Positive (GFP)” value ([4]; dmPGE2 50 uM during transduction (24-48 hours of culture), GFP lentivirus MOI 5) of the same compound?
A: The value was 36.80%.

Q: What about the “% Positive (GFP)” value ([4]; dmPGE2 50 uM during transduction (24-48 hours of culture), GFP lentivirus MOI 25) of the same compound?
A: The value was 67.62%.

Q: What about the MFI [4, 9] of the same compound?
A: The MFI was 656,703.50.

Q: And the MFI [4, 10]?
A: The MFI was 977,806.75.

Q: And the “% Positive (GFP)” value ([4]; dmPGE2 100 uM during transduction (24-48 hours of culture), GFP lentivirus MOI 5)?
A: The value was 42.97%.

Q: What about the “% Positive (GFP)” value ([4]; dmPGE2 100 uM during transduction (24-48 hours of culture), GFP lentivirus MOI 25) of the same compound?
A: The value was 81.53%.

Q: And the MFI [4, 11]?
A: The MFI was 732,716.25.

Q: What about the MFI [4, 12] of the same compound?
A: Its MFI is 1,513,504.00.
